Tested on: 439559-082-T-J2-PDC complex spheroid growth
Assay: Anticancer human tumor 439559-082-T-J2-PDC patient-derived colon adenocarcinoma cell line growth inhibition [Asc]
Settings: for IC50: curve of first compound; for viability, T/C: stronger effect = lower value; active means viability on the fitted dose curve at most 10% of control; inactive means the rest
Procedure: Multicellular complex tumor spheroid response to apoptosis pathway targeting inhibitors Alrizomadlin, Pelcitoclax, and Dasminapant in combination with a variety of drugs and investigational agents in selected tumor cell lines
The MDM2 inhibitor alrizomadlin, the Bcl-2/Bcl-xL inhibitor pelcitoclax, and the IAPs inhibitor dasminapant were evaluated both individually and in combination with standard of care and investigational anticancer small molecules within a complex spheroid model of solid tumors. . Complex spheroids include a stromal component modeled by human endothelial cells (HUVEC) and fibroblasts modeled by human mesenchymal stem cells (MSCs). The concentration ranges selected for each drug and investigational agent were based upon clinically achievable concentrations if the clinical Cmax of the agent was known.
Compounds. The drugs and investigational agents: alrizomadlin (APG-115; NSC831270), pelcitoclax (APG-1252; NSC835773), dasminapant (APG-1387;NSC834197), TAK-243 (NSC785004), copanlisib (NSC809693), olaparib (NSC753686), talazoparib (NSC767125), cobimetinib (NSC 768068), eltanexor (KPT-8602, NSC 794443), abemaciclib (NSC 768073), sotorasib (NSC818433), adagrasib (NSC 831453), MRTX-1133 (NSC 836407), Iadademestat (ORY1001, NSC 806812), and RMC-4630 (NSC839698), were obtained from the NCI Developmental Therapeutics Program Chemical Repository. The FDA-approved anticancer drug set is available from the Developmental Therapeutics Program at https://dtp.cancer.gov/organization/dscb/obtaining/available plates.htm. […] The stock solutions were prepared in dimethyl sulfoxide (DMSO, Sigma-Aldrich, St. Louis, MO, cat. D2650) at 800-fold the tested concentration and stored at -70 degrees C prior to their use. All drugs and investigational agents were tested over a range starting from a high concentration at or near the clinical Cmax and decreasing in half-log increments. If the clinical Cmax for an agent had not been determined, the highest concentration tested was 10 microM.
The patient-derived cancer (PDC) cell lines include five colon adenocarcinomas: 186277-243-T-J2-PDC, 616215-338-R-J1-PDC, 439559-082-T-J2-PDC, 463943-066-T-J2-PDC, and 519858-162-T-J1-PDC; three pancreatic carcinomas: 323965-272-R-J2-PDC, 521955-158-R6-J3-PDC, and 521955-158-R2-J5-PDC; two uterine sarcomas: 327498-152-R-J2-PDC and 993429-296-R-J1-PDC; two rhabdomyosarcomas: 755483-174-R-J1-PDC and 772245-204-R-J1-PDC; two soft tissue sarcomas: 126254-015-R-J1-PDC and 494315-158-R-J1-PDC; two malignant fibrous histiocytomas: 317291-083-R-J1-PDC and 596521-263-R-J1-PDC; two breast carcinomas: 171881-019-R-J1-PDC and 885512-296-R-J2-PDC; and one ovarian carcinoma: 6556581-035-R-J-PDC were obtained from the NCI PDMR, (https://pdmr.cancer.gov). The established cell lines HSSY-2 synovial sarcoma (RRID:CVCL 8719), SYO-1 synovial sarcoma (RRID:CVCL_7146), MPNST malignant peripheral neural sheath tumor were obtained from the Sloan Kettering Institute. The following established cell lines were purchased from the American Type Culture Collection (ATCC, Manassas, VA), Sor the received from the NCI repository:, PANC-1 pancreatic carcinoma (CRL-1469, RRID:CVCL_0480), OVCAR-5 ovarian carcinoma (RRID:CVCL_1628), OVCAR-8 ovarian carcinoma (RRID:CVCL_1629), , MCF-7 breast carcinoma (CRL-12584, RRID:CVCL_0031), MDA-MB-231 breast carcinoma (CRL-12532, RRID:CVCL_0062), NCI-H1876 small cell lung carcinoma (CRL-5902, RRID:CVCL_1503), NCI-H510A small cell lung carcinoma (HTB-184, RRID:CVCL_1565), NCI-H1417 (CRL-5869, RRID:CVCL_1469), and NCI-H196 small cell lung carcinoma (CRL-5823, RRID:CVCL_1509). Dr. Peter Houghton (Greehey Children's Cancer Research Institute, University of Texas Health Science Center, San Antonio, TX) provided Rh-18 rhabdomyosarcoma (RRID:CVCL_1659). Pooled donor human umbilical vein endothelial cells (HUVEC, Lonza, cat. CC-2519) and human mesenchymal stem cells (hMSC, Lonza, cat. PT-2501) were purchased from Lonza (Walkersville, MD).
Cell Culture. […]

[1] = second compound 0.03 µM, first compound 0.00316 µM
[2] = second compound 0.03 µM, first compound 0.01 µM
[3] = second compound 0.03 µM, first compound 0.0316 µM
[4] = second compound 0.03 µM, first compound 0.1 µM
[5] = second compound 0.0949 µM, first compound 0.00316 µM
[6] = second compound 0.0949 µM, first compound 0.01 µM
[7] = second compound 0.0949 µM, first compound 0.0316 µM
[8] = second compound 0.0949 µM, first compound 0.1 µM
[9] = second compound 0.3 µM, first compound 0.00316 µM
[10] = second compound 0.3 µM, first compound 0.01 µM
[11] = second compound 0.3 µM, first compound 0.0316 µM
[12] = second compound 0.3 µM, first compound 0.1 µM
[13] = second compound 0.949 µM, first compound 0.00316 µM
[14] = second compound 0.949 µM, first compound 0.01 µM
[15] = second compound 0.949 µM, first compound 0.0316 µM
[16] = second compound 0.949 µM, first compound 0.1 µM
[17] = second compound 3 µM, first compound 0.00316 µM
[18] = second compound 3 µM, first compound 0.01 µM
[19] = second compound 3 µM, first compound 0.0316 µM
[20] = second compound 3 µM, first compound 0.1 µM
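Further: spheroids exposed to agents for 7 days starting day 3 after seeding.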
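Wherever viability, T/C is given: percent of DMSO vehicle control viability with 100% = vehicle.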

CCN1CCN(Cc2ccc(Nc3ncc(F)c(-c4cc(F)c5nc(C)n(C(C)C)c5c4)n3)nc2)CC1 + CCN1C(C(=O)NC23CCC(C(=O)O)(CC2)CC3)C(c2cccc(Cl)c2F)C2(C(=O)Nc3cc(Cl)ccc32)C12CCCCC2
> 1000 nM: IC50 (second compound 0.03 µM) | IC50 (second compound 0.0949 µM) | IC50 (second compound 0.3 µM) | IC50 (second compound 0.949 µM) | IC50 (second compound 3 µM)
inactive: viability, T/C [1] 107% | viability, T/C [2] 105% | viability, T/C [3] 94.4% | viability, T/C [4] 88.9% | viability, T/C (second compound 0.03 µM, first compound 0.316 µM) 85.7% | viability, T/C (second compound 0.03 µM, first compound 1 µM) 83% | viability, T/C [5] 104% | viability, T/C [6] 107% | viability, T/C [7] 98.8% | viability, T/C [8] 80.7% | viability, T/C (second compound 0.0949 µM, first compound 0.316 µM) 94% | viability, T/C (second compound 0.0949 µM, first compound 1 µM) 84.8% | viability, T/C [9] 99.1% | viability, T/C [10] 106% | viability, T/C [11] 115% | viability, T/C [12] 87.2% | viability, T/C (second compound 0.3 µM, first compound 0.316 µM) 86.8% | viability, T/C (second compound 0.3 µM, first compound 1 µM) 85% | viability, T/C [13] 99.2% | viability, T/C [14] 102% | viability, T/C [15] 114% | viability, T/C [16] 93.5% | viability, T/C (second compound 0.949 µM, first compound 0.316 µM) 96.7% | viability, T/C (second compound 0.949 µM, first compound 1 µM) 90% | viability, T/C [17] 87.5% | viability, T/C [18] 94% | viability, T/C [19] 105% | viability, T/C [20] 80.7% | viability, T/C (second compound 3 µM, first compound 0.316 µM) 87% | viability, T/C (second compound 3 µM, first compound 1 µM) 84.7%

NC(=O)C(=Cn1cnc(-c2cc(C(F)(F)F)cc(C(F)(F)F)c2)n1)c1cncnc1 + CCN1C(C(=O)NC23CCC(C(=O)O)(CC2)CC3)C(c2cccc(Cl)c2F)C2(C(=O)Nc3cc(Cl)ccc32)C12CCCCC2
> 300 nM: IC50 (second compound 0.03 µM) | IC50 (second compound 0.0949 µM) | IC50 (second compound 0.3 µM) | IC50 (second compound 0.949 µM) | IC50 (second compound 3 µM)
inactive: viability, T/C (second compound 0.03 µM, first compound 0.000949 µM) 96.7% | viability, T/C (second compound 0.03 µM, first compound 0.003 µM) 103% | viability, T/C (second compound 0.03 µM, first compound 0.00949 µM) 103% | viability, T/C (second compound 0.03 µM, first compound 0.03 µM) 90.9% | viability, T/C (second compound 0.03 µM, first compound 0.0949 µM) 95.2% | viability, T/C (second compound 0.03 µM, first compound 0.3 µM) 81.9% | viability, T/C (second compound 0.0949 µM, first compound 0.000949 µM) 98.5% | viability, T/C (second compound 0.0949 µM, first compound 0.003 µM) 113% | viability, T/C (second compound 0.0949 µM, first compound 0.00949 µM) 107% | viability, T/C (second compound 0.0949 µM, first compound 0.03 µM) 83.2% | viability, T/C (second compound 0.0949 µM, first compound 0.0949 µM) 89.4% | viability, T/C (second compound 0.0949 µM, first compound 0.3 µM) 83.3% | viability, T/C (second compound 0.3 µM, first compound 0.000949 µM) 106% | viability, T/C (second compound 0.3 µM, first compound 0.003 µM) 102% | viability, T/C (second compound 0.3 µM, first compound 0.00949 µM) 105% | viability, T/C (second compound 0.3 µM, first compound 0.03 µM) 88.2% | viability, T/C (second compound 0.3 µM, first compound 0.0949 µM) 93.2% | viability, T/C (second compound 0.3 µM, first compound 0.3 µM) 80.8% | viability, T/C (second compound 0.949 µM, first compound 0.000949 µM) 105% | viability, T/C (second compound 0.949 µM, first compound 0.003 µM) 104% | viability, T/C (second compound 0.949 µM, first compound 0.00949 µM) 110% | viability, T/C (second compound 0.949 µM, first compound 0.03 µM) 90.3% | viability, T/C (second compound 0.949 µM, first compound 0.0949 µM) 88.6% | viability, T/C (second compound 0.949 µM, first compound 0.3 µM) 86.8% | viability, T/C (second compound 3 µM, first compound 0.000949 µM) 87.3% | viability, T/C (second compound 3 µM, first compound 0.003 µM) 93.2% | viability, T/C (second compound 3 µM, first compound 0.00949 µM) 96.6% | viability, T/C (second compound 3 µM, first compound 0.03 µM) 87.5% | viability, T/C (second compound 3 µM, first compound 0.0949 µM) 75% | viability, T/C (second compound 3 µM, first compound 0.3 µM) 67.7%

NC1CCC(NC2CC2c2ccccc2)CC1 (stereo not given) + CCN1C(C(=O)NC23CCC(C(=O)O)(CC2)CC3)C(c2cccc(Cl)c2F)C2(C(=O)Nc3cc(Cl)ccc32)C12CCCCC2
> 100 nM: IC50 (second compound 0.03 µM) | IC50 (second compound 0.0949 µM) | IC50 (second compound 0.3 µM) | IC50 (second compound 0.949 µM) | IC50 (second compound 3 µM)
inactive: viability, T/C (second compound 0.03 µM, first compound 0.000316 µM) 95.4% | viability, T/C (second compound 0.03 µM, first compound 0.001 µM) 107% | viability, T/C [1] 119% | viability, T/C [2] 95.5% | viability, T/C [3] 102% | viability, T/C [4] 99.7% | viability, T/C (second compound 0.0949 µM, first compound 0.000316 µM) 105% | viability, T/C (second compound 0.0949 µM, first compound 0.001 µM) 111% | viability, T/C [5] 123% | viability, T/C [6] 100% | viability, T/C [7] 98.8% | viability, T/C [8] 107% | viability, T/C (second compound 0.3 µM, first compound 0.000316 µM) 97.6% | viability, T/C (second compound 0.3 µM, first compound 0.001 µM) 111% | viability, T/C [9] 110% | viability, T/C [10] 98.4% | viability, T/C [11] 110% | viability, T/C [12] 111% | viability, T/C (second compound 0.949 µM, first compound 0.000316 µM) 111% | viability, T/C (second compound 0.949 µM, first compound 0.001 µM) 124% | viability, T/C [13] 121% | viability, T/C [14] 100% | viability, T/C [15] 107% | viability, T/C [16] 114% | viability, T/C (second compound 3 µM, first compound 0.000316 µM) 96.8% | viability, T/C (second compound 3 µM, first compound 0.001 µM) 98.5% | viability, T/C [17] 103% | viability, T/C [18] 98.6% | viability, T/C [19] 94.1% | viability, T/C [20] 107%
